Calls of active or inactive are those of the source. No cut-off for these calls is given here.

The target of the first assay is T1, Transcriptional activator protein LuxR (Aliivibrio fischeri, UniProt P12746).
T1 sequence (P12746 whole entry): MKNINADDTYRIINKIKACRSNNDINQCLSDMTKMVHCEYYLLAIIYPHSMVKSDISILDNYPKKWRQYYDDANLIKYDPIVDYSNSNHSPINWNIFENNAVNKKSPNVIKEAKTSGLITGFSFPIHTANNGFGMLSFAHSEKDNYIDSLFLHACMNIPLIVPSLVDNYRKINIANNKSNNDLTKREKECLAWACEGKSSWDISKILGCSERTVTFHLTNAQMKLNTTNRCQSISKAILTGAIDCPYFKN
The assay can be described thus: Inhibition of LuxR-dependent Vibrio fischeri quorum sensing assessed as reduction in 3-oxo-hexanoyihomoserine-induced bioluminescence.
For the compound `CCCCCC(=O)NC1=C(Cl)COC1=O`, the half-inhibitory concentration (IC50) came to 6.9 µM. Same read-out and setting: in the case of `O=C(CCCc1ccccc1)NC1=C(Br)COC1=O` it was 84 µM; in that of `CCCCCC(=O)NC1=CCOC1=O`, 85 µM; in that of `CCCCCC(=O)NC1=C(Br)COC1=O`, 6.5 µM. On to `CCCC(=O)CC(=O)NC1=CCOC1=O`, for which the half-inhibitory concentration (IC50) is 55 µM.

The target in another assay is T2, Transcriptional activator protein LuxR (Aliivibrio fischeri) (UniProt P12746).
T2 sequence (whole entry): T1 sequence (P12746 whole entry)
Description: Inhibition of LuxR-dependent Vibrio fischeri quorum sensing assessed as reduction in 3-oxo-hexanoyihomoserine-induced bioluminescence upto 100 uM.
Consider `O=C(CCCc1ccccc1)NC1=CCOC1=O`, for which the outcome was inactive.
